Assays:
[1] = target: Nicotinamide phosphoribosyltransferase (Homo sapiens, UniProt P43490); assay: Inhibition of NAMPT (unknown origin) using NAM and PRPP as substrates incubated for 2 hrs in presence of ATP by fluorimetric plate reader assay
HepG2 = assay: Cytotoxicity against human HepG2 cells assessed as reduction in cell viability measured after 72 hrs by SRB assay; assay type: functional, cell-based; conditions: for IC50: HepG2, 72 h

Chain of Nicotinamide phosphoribosyltransferase (P43490 whole entry): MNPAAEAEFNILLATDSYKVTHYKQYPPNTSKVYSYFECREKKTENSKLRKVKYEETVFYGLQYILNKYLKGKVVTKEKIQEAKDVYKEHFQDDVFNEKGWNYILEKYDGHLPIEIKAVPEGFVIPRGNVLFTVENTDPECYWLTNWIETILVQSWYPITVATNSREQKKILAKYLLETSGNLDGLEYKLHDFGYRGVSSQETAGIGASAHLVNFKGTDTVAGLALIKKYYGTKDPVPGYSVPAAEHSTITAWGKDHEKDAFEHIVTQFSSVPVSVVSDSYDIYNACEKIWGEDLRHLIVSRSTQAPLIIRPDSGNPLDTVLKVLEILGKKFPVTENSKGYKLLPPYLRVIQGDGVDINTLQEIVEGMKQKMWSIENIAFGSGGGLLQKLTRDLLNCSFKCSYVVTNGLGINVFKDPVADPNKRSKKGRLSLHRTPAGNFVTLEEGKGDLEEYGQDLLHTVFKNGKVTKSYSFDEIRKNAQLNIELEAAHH

| IC50 [1] [µM] | SMILES | IC50 (HepG2) [µM] | inhibition (HepG2) |
| --- | --- | --- | --- |
| 7.31 | CCOC(=O)c1ccc(NC(=O)NCc2ccnc(-n3ccnc3C)c2)cc1 | 24.3 | – |
| – | O=C(/C=C/c1cccnc1)NCCCCC1CCN(C(=O)c2ccccc2)CC1 [DAPORINAD] | 0.0187 | – |
| 2.15 | CCCOC(=O)c1ccc(NC(=O)NCc2cccnc2)cc1 | 15.2 | Dose-dependent effect |

Source: ChEMBL document CHEMBL4613228, “Identification of small-molecule urea derivatives as novel NAMPT inhibitors via pharmacophore-based virtual screening” (Bioorg Med Chem, 2020)
